# From paper PMC8880098, “Synthesis, Antibacterial Evaluation, and Computational Studies of a Diverse Set of Linezolid Conjugates” (Pharmaceuticals, 2022)
# Like-named read-outs stand apart in the source and are kept apart here.
# What was measured:
# [1] = test system: Bacillus subtilis ATCC 6633; experiment: Antibacterial MIC, microdilution susceptibility test (CLSI); type: cell-based; conditions: Bacillus subtilis
# Description: (§1) The synthesized linezolid conjugates (3a–k, 5a–f, 7a–c, 9a–c, 11a–f, 13, and 15) were subjected for antimicrobial properties determination against Gram-positive (Staphylococcus aureus ATCC 6538, Bacillus subtilis ATCC 6633) and Gram-negative (Pseudomonas aeruginosa ATCC 15692, Escherichia coli ATCC 47076) bacteria by the standard technique.
# (§2) Antibacterial properties of the synthesized compounds (3a–k, 5a–f, 7a–c, 9a–c, 11a–f, 13 and 15) were screened against Gram-positive (Staphylococcus aureus ATCC 6538, Bacillus subtilis ATCC 6633) and Gram-negative (Pseudomonas aeruginosa ATCC 15,692 and Escherichia coli ATCC 47076) bacteria utilizing the standard technique. Linezolid was used as a standard reference/drug in the current study. The tested bacterial strains were obtained from MERCIN Center, Faculty of Agriculture, Ain Shams University, Cairo, Egypt.
# (§3) To determine the antibacterial activity, stock solutions of the tested compounds and standard reference were prepared with up to 100% DMSO and stored at […]. If necessary, the solutions were heated to 40–60 °C before testing to facilitate complete dissolution. Double distilled water was used in all dilutions prepared. […] A microdilution susceptibility test was used for MIC determination (Mueller–Hinton broth in 96-well plates) according to the CLSI (the Clinical and Laboratory Standards Institute, Malvern, PA, USA). The bacterial inoculum was adjusted to approximately 2.5–3 × 10^4 cells/mL in Mueller–Hinton broth and incubated in a ratio of 1:1 with the test derivatives in polystyrene 96-well flat-bottom microplates. Positive growth control (without test derivatives) and negative control (without bacteria) were included. The microplates were placed in an incubator set to 37 °C for 24 h. Absorbance was measured at 620 nm at the end of the incubation period. The cut-off level for follow-up studies was defined as a minimum of 90% inhibition of growth compared to the untreated sample. Experiments were conducted once in triplicate. For selected compounds, minimum inhibitory concentration (MIC) values were determined by dose–response experiments. Experiments were performed at least twice, in triplicate per concentration tested.
# [2] = test system: Staphylococcus aureus ATCC 6538; experiment: as above; type: cell-based; conditions: Staphylococcus aureus
# Description: as §1, §2, §3
# [3] = test system: Escherichia coli ATCC 47076; experiment: as above; type: cell-based
# Description: as §1, §2, §3
# [4] = test system: Pseudomonas aeruginosa ATCC 15692; experiment: as above; type: cell-based
# Description: as §1, §2, §3
# [5] = test system: Bacillus subtilis ATCC 6633; experiment: microbe, parasite or virus in culture; parameters: species or system bacteria; Broth microdilution MIC in Mueller-Hinton broth, absorbance at 620 nm; conditions: ATCC6633, 24 h, read-out: Observed MIC, uM (B. subtilis)
# Description: as §3, with “Antibacterial properties of the synthesized compounds (3a–k, 5a–f, 7a–c, 9a–c, 11a–f, 13 and 15) were screened against Gram-positive (Staphylococcus aureus ATCC 6538, Bacillus subtilis ATCC 6633) and Gram-negative (Pseudomonas aeruginosa ATCC 15,692 and Escherichia coli ATCC 47076) bacteria utilizing the standard technique. Linezolid was used as a standard reference/drug in the current study. The tested bacterial strains were obtained from MERCIN Center, Faculty of Agriculture, Ain Shams University, Cairo, Egypt. To” for “To”
# [6] = test system: Staphylococcus aureus ATCC 6538; experiment: microbe, parasite or virus in culture; parameters: species or system bacteria; Broth microdilution MIC in Mueller-Hinton broth, absorbance at 620 nm; conditions: ATCC6538, 24 h, read-out: Observed MIC, uM (S. aureus)
# Description: as §3, with “Antibacterial properties of the synthesized compounds (3a–k, 5a–f, 7a–c, 9a–c, 11a–f, 13 and 15) were screened against Gram-positive (Staphylococcus aureus ATCC 6538, Bacillus subtilis ATCC 6633) and Gram-negative (Pseudomonas aeruginosa ATCC 15,692 and Escherichia coli ATCC 47076) bacteria utilizing the standard technique. Linezolid was used as a standard reference/drug in the current study. The tested bacterial strains were obtained from MERCIN Center, Faculty of Agriculture, Ain Shams University, Cairo, Egypt. To” for “To”
# [7] = ATCC6633, 24 h, Mueller–Hinton broth, 37 °C, 24 h, read-out: MIC, μg/mL ± SE, B. Subtilis (ATCC 6633)
# [8] = ATCC6538, 24 h, Mueller–Hinton broth, 37 °C, 24 h, read-out: MIC, μg/mL ± SE, S. Aureus (ATCC 6538)
# [9] = ATCC47076, Mueller–Hinton broth, 37 °C, 24 h, read-out: MIC, μg/mL ± SE, E. Coli (ATCC 47076)
# [10] = ATCC47076, value in parentheses, read-out: MIC (μmol), E. Coli (ATCC 47076) (converted)
# [11] = ATCC15692, Mueller–Hinton broth, 37 °C, 24 h, read-out: MIC, μg/mL ± SE, P. Aeruginosa (ATCC 15692)
# [12] = ATCC15692, value in parentheses, read-out: MIC (μmol), P. Aeruginosa (ATCC 15692) (converted)
# [13] = ATCC6633, as quoted in running text, read-out: MIC against B. subtilis
# [14] = ATCC6538, as quoted in running text, read-out: MIC against S. aureus
# [15] = ATCC6538, value in parentheses, read-out: MIC (μmol), S. Aureus (ATCC 6538) (converted)
Compound,"MIC [1, 7] [µg/mL]","MIC [2, 8] [µg/mL]","MIC [3, 9] [µg/mL]","MIC [3, 10] [µM]","MIC [4, 11] [µg/mL]","MIC [4, 12] [µM]",MIC [5] [µM],MIC [6] [µM],melting point [°C],"MIC [1, 13] [µM]","MIC [2, 14] [µM]","MIC ([1]; ATCC6633, value in parentheses, read-out: MIC (μmol), B. Subtilis (ATCC 6633) (converted)) [µM]","MIC [2, 15] [µM]","MIC ([4]; ATCC15692, read-out: MIC against P. aeruginosa) [µM]"
"O=C(N[C@@H](Cc1ccccc1)C(=O)NC[C@H]1CN(c2ccc(N3CCOCC3)c(F)c2)C(=O)O1)OCc1ccccc1 [Compound 3e, Benzyl ((S)-1-((((S)-3-(3-fluoro-4-morpholinophenyl)-2-oxooxazolidin-5-yl)methyl)amino)-1-oxo-3-phenylpropan-2-yl)carbamate]",32 ± 1.9,32 ± 2.2,32 ± 1,55.5,64 ± 2.1,111,55.5,55.5,120 to 122,,,,,
"CC(C)(C)OC(=O)NCC(=O)NC[C@H]1CN(c2ccc(N3CCOCC3)c(F)c2)C(=O)O1 [Compound 3f, Tert-butyl (S)-(2-(((3-(3-fluoro-4-morpholinophenyl)-2-oxooxazolidin-5-yl)methyl)amino)-2-oxoethyl)carbamate]",8 ± 0.4,32 ± 1.4,32 ± 2.8,70.7,32 ± 1.6,70.7,17.7,70.7,54 to 56,,,,,
"C[C@H](NC(=O)OC(C)(C)C)C(=O)NC[C@H]1CN(c2ccc(N3CCOCC3)c(F)c2)C(=O)O1 [Compound 3g, Tert-butyl ((S)-1-((((S)-3-(3-fluoro-4-morpholinophenyl)-2-oxooxazolidin-5-yl)methyl)amino)-1-oxopropan-2-yl)carbamate]",32 ± 2.4,32 ± 1.5,32 ± 2.7,68.6,32 ± 1.2,68.6,68.6,68.6,71 to 72,,,,,
"CC(C)(C)OC(=O)N[C@@H](Cc1ccccc1)C(=O)NC[C@H]1CN(c2ccc(N3CCOCC3)c(F)c2)C(=O)O1 [Compound 3j, Tert-butyl ((S)-1-((((S)-3-(3-fluoro-4-morpholinophenyl)-2-oxooxazolidin-5-yl)methyl)amino)-1-oxo-3-phenylpropan-2-yl)carbamate]",32 ± 1.3,64 ± 2.5,32 ± 0.9,59,64 ± 1.8,118,59,118,69 to 71,,,,,
"O=C(NC[C@H]1CN(c2ccc(N3CCOCC3)c(F)c2)C(=O)O1)c1ccccc1 [Compound 5a, (S)-N-((3-(3-Fluoro-4-morpholinophenyl)-2-oxooxazolidin-5-yl)methyl)benzamide]",1 ± 0.1,4 ± 0.2,32 ± 1.6,80.1,32 ± 0.8,80.1,2.5,10,174 to 176,2.33 to 2.5,9.34 to 10,,,
"CNc1ccc(C(=O)NC[C@H]2CN(c3ccc(N4CCOCC4)c(F)c3)C(=O)O2)cc1 [Compound 5e, (S)-N-((3-(3-Fluoro-4-morpholinophenyl)-2-oxooxazolidin-5-yl)methyl)-4-(methylamino) benzamide]",1 ± 0.1,4 ± 0.2,32 ± 1.6,74.7,32 ± 2.2,74.7,,,195 to 197,2.33 to 2.5,9.34 to 10,2.33,9.34,
"O=C(NC[C@H]1CN(c2ccc(N3CCOCC3)c(F)c2)C(=O)O1)c1ccncc1 [Compound 7a, (S)-N-((3-(3-Fluoro-4-morpholinophenyl)-2-oxooxazolidin-5-yl)methyl)isonicotin-amide]",2 ± 0.2,8 ± 0.3,32 ± 0.9,79.9,8 ± 0.1,20,5,,198 to 200,,,,20,20
"CS(=O)(=O)c1ccc(CNC[C@H]2CN(c3ccc(N4CCOCC4)c(F)c3)C(=O)O2)cc1 [Compound 11b, (S)-3-(3-Fluoro-4-morpholinophenyl)-5-[{(4-(methylsulfonyl)benzyl}amino]methyl) oxazolidin-2-one]",32 ± 1.4,32 ± 1.2,32 ± 1.1,69,64 ± 2.8,138,69,69,,,,,,
"O=C1O[C@@H](CNCc2ccc(C(F)(F)F)cc2)CN1c1ccc(N2CCOCC2)c(F)c1 [Compound 11c, (S)-3-(3-Fluoro-4-morpholinophenyl)-5-[{(4-(trifluoromethyl)benzyl}amino]methyl) oxazolidin-2-one]",16 ± 0.4,32 ± 0.8,32 ± 0.9,70.6,64 ± 1.5,141,35.3,70.6,,,,,,
"O=C1O[C@@H](CNCc2cccc(Cl)c2)CN1c1ccc(N2CCOCC2)c(F)c1 [Compound 11d, (S)-5-[{(3-Chlorobenzyl)amino}methyl]-3-(3-fluoro-4-morpholinophenyl) oxazolidin-2-one]",32 ± 1.2,32 ± 1,32 ± 2.1,76.2,32 ± 1.7,76.2,76.2,76.2,,,,,,
"COc1cc(CNC[C@H]2CN(c3ccc(N4CCOCC4)c(F)c3)C(=O)O2)cc(OC)c1 [Compound 11f, (S)-5-[{(3,5-Dimethoxybenzyl)amino}methyl]-3-(3-fluoro-4-morpholinophenyl) oxazo-lidine-2-one]",32 ± 0.3,32 ± 1.7,32 ± 0.8,71.8,32 ± 1.9,71.8,71.8,71.8,,,,,,
"O=C1O[C@@H](CNCCCO[N+](=O)[O-])CN1c1ccc(N2CCOCC2)c(F)c1 [Compound 13, (S)-3-[{(3-(3-Fluoro-4-morpholinophenyl)-2-oxooxazolidin-5-yl)methyl}amino] propyl nitrate]",32 ± 0.9,32 ± 1,32 ± 0.6,80.3,32 ± 1.5,80.3,80.3,80.3,,,,,,
